Test results as given in patent US20040063716A1, “Cholesterol biosynthesis inhibitors containing as the active ingredient tricyclic spiro compounds” (priority 2000, published 2004).

The compounds below were run on human plasma (assay: Measurement of intrinsic coagulation time (APTT) in vitro).
Format: biochemical
Method: Activated partial thromboplastin time (APTT) is measured in the presence of the test compounds diluted at various concentrations. A test compound diluted with DMSO at various concentrations is mixed with human plasma and APTT reagent. The mixture is incubated at 37° C. for 2 minutes; calcium chloride (25 mM) is added to the mixture; and the coagulation time is thereafter measured. It should be noted that the anticoagulant activity of the test compound is described in terms of the concentration required to double the coagulation time for the case where no test compound is added.
`COCCOC(=O)C12CN(S(=O)(=O)c3ccc4cc(Cl)ccc4c3)CC(=O)N1CC1(CCN(c3ccncc3)CC1)O2` (single isomer, unassigned; (-)) [Example 42, (−)-1,4-Diaza-4-(6-chloronaphthalen-2-ylsulfonyl)-6-(2-methoxyethoxycarbonyl)-7-oxa-1′-(4-pyridyl)spiro[bicyclo[4.3.0]nonane-8,4′-piperidin]-2-one] was tested, and the “Concentration required to double coagulation time” value (“Concentration required” below) was 0.20 µM.
In the case of `COCC12CN(S(=O)(=O)c3ccc4ccccc4c3)CC(=O)N1CC1(CCN(c3ccncc3)CC1)O2` (stereo not shown) [Example 6, 1,4-Diaza-6-(methoxymethyl)-4-(2-naphthalenesulfonyl)-7-oxa-1′-(4-pyridyl)spiro[bicyclo[4.3.0]nonane-8,4′-piperidin]-2-one], the “Concentration required” value is reported as 0.99 µM.
In the case of `O=C1CN(S(=O)(=O)c2ccc3cc(Cl)ccc3c2)CC2OC3(CCN(c4ccncc4)CC3)CN12` (stereo not shown) [Example 9, 1,4-Diaza-4-(6-chloronaphthalen-2-ylsulfonyl)-7-oxa-1′-(4-pyridyl)spiro[bicyclo[4.3.0]nonane-8,4′-piperidin]-2-one], the “Concentration required” value is reported as 0.29 µM.
`COCC12CN(S(=O)(=O)c3ccc4cc(Cl)ccc4c3)CC(=O)N1CC1(CCN(c3cc[n+](C)cc3)CC1)O2.Cc1ccc(S(=O)(=O)[O-])cc1` (stereo not shown) [Example 23, 4-[1,4-Diaza-4-(6-chloronaphthalen-2-ylsulfonyl)-6-(methoxymethyl)-7-oxa-2-oxospiro[bicyclo[4.3.0]nonane-8,4′-piperidin-1′-yl]]-1-methylpyridinium p-Toluenesulfonate] was tested, and the “Concentration required” value was 0.62 µM.
With `CC(C)OC(=O)C12CN(S(=O)(=O)c3ccc4cc(Cl)ccc4c3)CC(=O)N1CC1(CCN(c3ccncc3)CC1)O2` (stereo not shown) [Example 29, 1,4-Diaza-4-(6-chloronaphthalen-2-ylsulfonyl)-6-(isopropoxycarbonyl)-7-oxa-1′-(4-pyridyl)spiro[bicyclo[4.3.0]nonane-8,4′-piperidin]-2-one] the “Concentration required” value was 0.90 µM.
With `NCC12CN(S(=O)(=O)c3ccc4cc(Cl)ccc4c3)CC(=O)N1CC1(CCN(c3ccncc3)CC1)O2` (stereo not shown) [Example 58, 6-(Aminomethyl)-1,4-diaza-4-(6-chloronaphthalen-2-ylsulfonyl)-7-oxa-1′-(4-pyridyl)spiro[bicyclo[4.3.0]nonane-8,4′-piperidin]-2-one] the “Concentration required” value was 0.18 µM.
`CC12CN(S(=O)(=O)c3ccc4cc(Cl)ccc4c3)CC(=O)N1CC1(CCN(c3ccncc3)CC1)O2` (stereo not shown) [Example 69, 1,4-Diaza-4-(6-chloronaphthalen-2-ylsulfonyl)-6-methyl-7-oxa-1′-(4-pyridyl)spiro[bicyclo[4.3.0]nonane-8,4′-piperidin]-2-one] was tested, and the “Concentration required” value was 0.36 µM.
For `O=C1CN(S(=O)(=O)c2cc3ccc(Cl)cc3s2)CC2NC3(CCN(c4ccncc4)CC3)CN12` (stereo not shown) [Example 275, 1,4,7-Triaza-4-(6-chlorobenzo[b]thiophen-2-ylsulfonyl)-1′-(4-pyridyl)spiro[bicyclo[4.3.0]nonane-8,4′-piperidin]-2-one], the “Concentration required” value was 0.17 µM.
For `COCC12CN(S(=O)(=O)C3=Cc4ccc(Cl)cc4OC3)CC(=O)N1CC1(CCN(c3ccncc3)CC1)O2` (stereo not shown) [Example 388, 1,4-Diaza-4-(7-chloro-2H-benzopyran-3-sulfonyl)-6-(methoxymethyl)-7-oxa-1′-(4-pyridyl)spiro[bicyclo[4.3.0]nonane-8,4′-piperidin]-2-one], the “Concentration required” value was 0.22 µM.
With `COCC12CN(S(=O)(=O)c3cc4ccc(Cl)cc4s3)CC(=O)N1CC1(CCN(c3ccncc3)CC1)O2` (stereo not shown) [Example 399, 1,4-Diaza-4-(6-chlorobenzo[b]thiophen-2-ylsulfonyl)-6-(methoxymethyl)-7-oxa-1′-(4-pyridyl)spiro[bicyclo[4.3.0]nonane-8,4′-piperidin]-2-one] the “Concentration required” value was 0.18 µM.
